Results: patent US11197857B2, “Combination therapy” (GlaxoSmithKline Intellectual Property Development Limited, priority 2016, dated 2021)

How the values were obtained:
[1] = test system: human renal cell carcinoma xenografts (ACHN); test: ACHN xenograft efficacy; type: in vivo, mouse
[2] = rat 14-day MTD; settings: […] mg/kg
[3] = test system: HL-60; test: 6-day growth-death assay (Cell Titer Glo); type: cell-based, human
Description: (§1) The growth of all cell lines was evaluated over time across a wide range of seeding densities to identify conditions that permitted proliferation throughout the entire 6-day assay. Cells were plated at the optimal seeding density and after overnight incubation, a 20-point 2-fold titration of compound was added and plates were incubated for 6 days. A replicate plate of cells was harvested at the time of compound addition to quantify the starting number of cells (T0). Values obtained after the 6 day treatment were expressed as a function of the T0 value and plotted against compound concentration. The T0 value was normalized to 100% and represents the number of cells at the time of compound addition. The data were fit with a 4 parameter equation to generate a concentration response curve and the growth IC50 (gIC50) was determined. The gIC50 is the midpoint of the ‘growth window’, the difference between the number of cells at the time of compound addition (To) and the number of cells after 6 days (DMSO control). The growth-death assay can be used to quantify the net population change, clearly defining cell death (cytotoxicity) as fewer cells compared to the number at the time of compound addition (To).

[4] = test system: SW156; test: 6-day growth-death assay (Cell Titer Glo); type: cell-based, human; settings: SW156, ccRCC
Description: as §1

[5] = test system: SKM-1; test: 6-day growth-death assay (Cell Titer Glo); type: cell-based, human; settings: SKM-1, subtype M5
Description: as §1

[6] = test system: KASUMI-1; test: 6-day growth-death assay (Cell Titer Glo); type: cell-based, human
Description: as §1

[7] = test system: G-401; test: 6-day growth-death assay (Cell Titer Glo); type: cell-based, human; settings: G-401, Wilm's
Description: as §1

[8] = test system: 786-O; test: 6-day growth-death assay (Cell Titer Glo); type: cell-based, human; settings: ccRCC
Description: as §1

[9] = test system: SK-NEP-1; test: 6-day growth-death assay (Cell Titer Glo); type: cell-based, human; settings: SK-NEP-1, Wilm's
Description: as §1

[10] = test system: MOLM-13; test: 6-day growth-death assay (Cell Titer Glo); type: cell-based, human; settings: MOLM-13, subtype M5
Description: as §1

[11] = test system: MOLM-16; test: 6-day growth-death assay (Cell Titer Glo); type: cell-based, human; settings: MOLM-16, subtype M0
Description: as §1

[12] = test system: G-402; test: 6-day growth-death assay (Cell Titer Glo); type: cell-based, human; settings: G-402, Leiomyoblastoma
Description: as §1

[13] = test system: TF-1; test: 6-day growth-death assay (Cell Titer Glo); type: cell-based, human; settings: TF-1, subtype M6
Description: as §1

[14] = test system: 769-P; test: 6-day growth-death assay (Cell Titer Glo); type: cell-based, human; settings: ccRCC
Description: as §1

[15] = test system: A498; test: 6-day growth-death assay (Cell Titer Glo); type: cell-based, human; settings: A498, ccRCC
Description: as §1

[16] = test system: MV-4-11; test: 6-day growth-death assay (Cell Titer Glo); type: cell-based, human; settings: MV-4-11, subtype M5
Description: as §1

[17] = test system: ACHN; test: 6-day growth-death assay (Cell Titer Glo); type: cell-based, human
Description: as §1

[18] = test system: NOMO-1; test: 6-day growth-death assay (Cell Titer Glo); type: cell-based, human; settings: NOMO-1, subtype M5
Description: as §1

[19] = test system: SHI-1; test: 6-day growth-death assay (Cell Titer Glo); type: cell-based, human; settings: SHI-1, subtype M5
Description: as §1

[20] = test system: CAKI-2; test: 6-day growth-death assay (Cell Titer Glo); type: cell-based, human; settings: CAKI-2, ccRCC
Description: as §1

[21] = test system: OCI-AML3; test: 6-day growth-death assay (Cell Titer Glo); type: cell-based, human
Description: as §1

[22] = test system: CAKI-1; test: 6-day growth-death assay (Cell Titer Glo); type: cell-based, human; settings: CAKI-1, ccRCC
Description: as §1

[23] = target: PRMT5/MEP50 (Homo sapiens, UniProt O14744); test: PRMT family radioactive assay; type: biochemical; settings: 60 minute SAM:Enzyme:Compound A preincubation
PRMT5/MEP50, sequence (O14744 whole entry): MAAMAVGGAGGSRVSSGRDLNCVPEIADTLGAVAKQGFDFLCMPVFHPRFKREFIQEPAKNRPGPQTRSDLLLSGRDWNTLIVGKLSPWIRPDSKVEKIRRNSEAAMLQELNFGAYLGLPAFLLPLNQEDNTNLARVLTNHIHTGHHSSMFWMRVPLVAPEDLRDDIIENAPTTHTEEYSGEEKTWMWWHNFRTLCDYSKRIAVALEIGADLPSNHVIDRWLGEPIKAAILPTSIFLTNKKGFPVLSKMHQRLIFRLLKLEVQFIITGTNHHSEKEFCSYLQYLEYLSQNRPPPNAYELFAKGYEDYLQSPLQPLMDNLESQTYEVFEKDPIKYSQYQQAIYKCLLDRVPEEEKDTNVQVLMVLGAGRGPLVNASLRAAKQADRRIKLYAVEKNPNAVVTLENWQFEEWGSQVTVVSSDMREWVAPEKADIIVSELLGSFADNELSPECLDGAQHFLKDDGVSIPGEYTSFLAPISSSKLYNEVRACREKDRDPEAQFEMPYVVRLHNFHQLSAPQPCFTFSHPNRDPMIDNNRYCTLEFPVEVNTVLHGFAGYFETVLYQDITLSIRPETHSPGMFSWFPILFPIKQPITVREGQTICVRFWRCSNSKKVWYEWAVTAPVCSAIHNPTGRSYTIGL
PRMT5/MEP50, sequence (Q9BQA1 whole entry partner): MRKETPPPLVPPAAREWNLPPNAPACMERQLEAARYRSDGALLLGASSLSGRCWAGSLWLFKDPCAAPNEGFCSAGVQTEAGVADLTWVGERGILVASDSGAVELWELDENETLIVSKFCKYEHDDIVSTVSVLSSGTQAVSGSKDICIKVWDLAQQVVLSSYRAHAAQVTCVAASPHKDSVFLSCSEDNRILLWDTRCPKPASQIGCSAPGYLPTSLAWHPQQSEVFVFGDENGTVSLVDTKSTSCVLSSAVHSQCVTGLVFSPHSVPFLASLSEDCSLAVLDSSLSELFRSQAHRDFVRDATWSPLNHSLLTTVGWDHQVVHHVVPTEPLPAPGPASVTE

[24] = target: PRMT9 (Homo sapiens, UniProt Q6P2P2); test: PRMT family radioactive assay; type: biochemical; settings: 60 minute SAM:Enzyme:Compound A preincubation
PRMT9, sequence (Q6P2P2 whole entry): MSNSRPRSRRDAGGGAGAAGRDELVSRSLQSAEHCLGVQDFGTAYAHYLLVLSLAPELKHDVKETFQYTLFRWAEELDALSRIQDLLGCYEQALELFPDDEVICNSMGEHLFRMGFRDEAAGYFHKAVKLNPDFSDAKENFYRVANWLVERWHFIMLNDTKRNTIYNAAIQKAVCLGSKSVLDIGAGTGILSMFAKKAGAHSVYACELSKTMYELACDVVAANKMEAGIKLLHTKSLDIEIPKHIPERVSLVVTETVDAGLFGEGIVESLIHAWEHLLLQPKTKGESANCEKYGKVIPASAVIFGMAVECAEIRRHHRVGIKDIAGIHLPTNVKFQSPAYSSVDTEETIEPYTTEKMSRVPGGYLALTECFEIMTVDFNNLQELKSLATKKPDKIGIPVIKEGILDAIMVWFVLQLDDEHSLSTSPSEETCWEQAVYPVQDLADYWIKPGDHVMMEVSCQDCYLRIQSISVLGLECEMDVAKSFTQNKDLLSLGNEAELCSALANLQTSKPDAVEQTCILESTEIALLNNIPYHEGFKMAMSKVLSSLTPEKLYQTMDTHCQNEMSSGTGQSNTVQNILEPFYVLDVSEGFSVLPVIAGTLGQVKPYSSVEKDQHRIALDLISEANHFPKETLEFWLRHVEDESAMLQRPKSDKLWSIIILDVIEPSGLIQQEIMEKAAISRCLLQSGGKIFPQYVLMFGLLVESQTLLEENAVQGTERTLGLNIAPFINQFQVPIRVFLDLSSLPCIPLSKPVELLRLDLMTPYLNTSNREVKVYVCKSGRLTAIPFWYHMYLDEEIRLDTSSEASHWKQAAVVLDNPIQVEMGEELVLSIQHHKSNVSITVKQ

[25] = test system: non-TNBC breast cancer cell lines; test: cells; settings: Homo sapiens, read-out: Median gIC50
Description: Cell lines representing triple negative breast cancer (TNBC) are shown in orange; other subtypes are in blue.
as §1

SMILES: CCOCC1(COCC)CCC(c2n[nH]cc2CN(C)CCNC)CC1 [Compound A]
- Regression ([1]; 300 mg/kg QD oral, day 59): (2%)
- Body weight Difference (vs. vehicle) ([1]; 300 mg/kg QD, day 59): −4%
- Regression ([1]; 450 mg/kg QD oral, day 59): (15%)
- Body weight Difference (vs. vehicle) ([1]; 450 mg/kg QD, day 59): −7%
- Regression ([1]; 600 mg/kg QD oral, arm terminated at day 31): (6%)
- Body weight Difference (vs. vehicle) ([1]; 600 mg/kg QD, arm terminated at day 31): −17%
- body weight loss ([1]; 600 mg/kg daily): Significant body weight loss
- Body weight Difference (vs. vehicle) ([1]; […] mg/kg QD, day 59): −3%
- doses at which regressions were observed ([1]; oral, daily, up to 59 days): ≥ 300 mg/kg
- Cave (total AUC or exposure) at MTD [2]: 2100 nM
- Ymin-T0 ([3]; HL-60, subtype M3): −33.4
- gIC100 ([3]; HL-60, subtype M3): 6.38 ± 12.83 µM
- IC50 ([3]; Homo sapiens, HL-60, read-out: gIC50): 20 ± 10 nM
- Ymin-T0 [4]: 346.7
- Ymin-T0 [5]: −19.1
- gIC100 [5]: 11.61 ± 5.52 µM
- IC50 ([6]; Homo sapiens, Kasumi 1, read-out: gIC50): 360 ± 250 nM
- Ymin-T0 ([6]; KASUMI-1, subtype M2): −17.7
- gIC100 ([6]; KASUMI-1, subtype M2): 18.88 ± 10.55 µM
- Ymin-T0 [7]: 353.7
- Ymin-T0 [8]: 643.7
- Ymin-T0 [9]: 25.3
- Ymin-T0 [10]: −100.0
- gIC100 [10]: 8.64 ± 0.39 µM
- Ymin-T0 [11]: −68.6
- gIC100 [11]: 9.69 ± 10.58 µM
- Ymin-T0 [12]: 92.6
- Ymin-T0 [13]: 788.1
- gIC100 [13]: 29.33 ± 0.00 µM
- Ymin-T0 [14]: 119.0
- Ymin-T0 [15]: 313.4
- Ymin-T0 [16]: 565.6
- gIC100 [16]: 14.55 ± 4.27 µM
- IC50 ([17]; Homo sapiens, read-out: gIC50): 100 ± 50 nM
- Ymin-T0 ([17]; ccRCC): 96.5
- Ymin-T0 [18]: 259.1
- gIC100 [18]: 29.33 ± 0.00 µM
- Ymin-T0 [19]: 292.0
- gIC100 [19]: 29.33 ± 0.02 µM
- Ymin-T0 [20]: 169.6
- IC50 ([21]; Homo sapiens, OCI-AML-3, read-out: gIC50): 870 ± 140 nM
- Ymin-T0 ([21]; OCI-AML3, subtype M4): 523.2
- gIC100 ([21]; OCI-AML3, subtype M4): 29.33 ± 0.00 µM
- Ymin-T0 [22]: 178.7
- inhibition of activity [23]: failed to inhibit
- inhibition of activity [24]: failed to inhibit
- IC50 [25]: 6800 nM
